Reference: patent US10913738B2 (BRISTOL-MYERS SQUIBB COMPANY, priority 2017, dated 2021)
Where two headings read alike, the source gives them in different places.

Experiments:
[1] = test system: MLKL phosphorylation in HT29-L23 human colorectal adenocarcinoma cells; assay: MLKL Phosphorylation High-Content Assay; assay type: cell-based; conditions: Homo sapiens
Summary of the method: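 IC50 and Ymax obtained by 4-parameter logistic fitting of MLKL phosphorylation, measured as mean circ-ring average intensity ratio from high-content images. Staining used an anti-phospho-S358 MLKL antibody overnight at 4° C., following six-hour cell incubation at 37° C.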

[2] = molecular target: T1, His-GST-TVMV-hRIPK1(1-324) (Homo sapiens, UniProt Q13546); assay: RIPK1 HTRF Binding Assay
T1 construct: The coding region of human RIPK1(1-324) flanked by NdeI site at 5′ end; made in house; host or cells: Spodoptera frugiperda (Sf9) insect cells, baculovirus
T1 sequence (Q13546 1-324): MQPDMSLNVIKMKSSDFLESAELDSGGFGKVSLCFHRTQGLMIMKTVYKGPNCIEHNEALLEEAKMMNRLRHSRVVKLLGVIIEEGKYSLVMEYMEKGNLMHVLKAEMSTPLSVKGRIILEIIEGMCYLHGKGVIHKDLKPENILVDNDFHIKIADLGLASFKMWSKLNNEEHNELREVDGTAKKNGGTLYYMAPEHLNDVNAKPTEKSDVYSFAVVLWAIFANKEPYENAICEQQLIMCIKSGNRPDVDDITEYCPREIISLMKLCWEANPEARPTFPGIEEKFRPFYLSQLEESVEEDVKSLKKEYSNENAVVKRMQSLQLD

[3] = x marks IC50 class <20 nM, read-out: pMLKL cell activity <20 nM
[4] = x marks IC50 class <20 nM, read-out: RIPK1 HTRF binding <20 nM
[5] = x marks IC50 class >200 nM, read-out: pMLKL cell activity >200 nM
[6] = x marks IC50 class 20-200 nM, read-out: RIPK1 HTRF binding 20-200 nM
[7] = x marks IC50 class 20-200 nM, read-out: pMLKL cell activity 20-200 nM

SMILES	IC50 [2, 4]	IC50 [1, 7]	other results
COc1ncc(-c2ccn3nc(N)nc3c2)cc1C(=O)NCc1cccnc1OC1CCCC1 [Example 135, 5-{2-amino-[1,2,4]triazolo[1,5-a]pyridin-7-yl}-N-{[2-(cyclopentyloxy)pyridin-3-yl]methyl}-2-methoxypyridine-3-carboxamide]	< 20 nM		IC50 [1, 3]: < 20 nM
Nc1nc2cc(-c3cnc(Cl)c(C(=O)NCc4ccccc4OC(F)(F)F)c3)ccn2n1 [Example 168, 5-{2-amino-[1,2,4]triazolo[1,5-a]pyridin-7-yl}-2-chloro-N-{[2-(trifluoromethoxy)phenyl]methyl}pyridine-3-carboxamide]			IC50 [1, 5]: > 200 nM; IC50 [2, 6]: 20 to 200 nM
Nc1nc2cc(-c3cc(C(=O)NCc4ccccc4OC(F)(F)F)cnc3Cl)ccn2n1 [Example 372, 5-(2-amino-[1,2,4]triazolo[1,5-a]pyridin-7-yl)-6-chloro-N-(2-(trifluoromethoxy)benzyl)nicotinamide]	< 20 nM		IC50 [1, 5]: > 200 nM
Cc1cnc(-c2ccn3nc(N)nc3c2)cc1C(=O)NCC[C@@H](O)c1ccc(Cl)cc1 [Example 395, (R)-2-(2-amino-[1,2,4]triazolo[1,5-a]pyridin-7-yl)-N-(3-(4-chlorophenyl)-3-hydroxypropyl)-5-methylisonicotinamide]	< 20 nM	20 to 200 nM	
Cc1nc(C)c(-c2ccn3nc(N)nc3c2)cc1C(=O)NCc1cc(F)ccc1OCC1CCCC1 [Example 190, 5-{2-amino-[1,2,4]triazolo[1,5-a]pyridin-7-yl}-N-{[2-(cyclopentylmethoxy)-5-fluorophenyl]methyl}-2,6-dimethylpyridine-3-carboxamide]	< 20 nM		IC50 [1, 3]: < 20 nM
[2H]C([2H])([2H])[C@@H](NC(=O)c1cc(-c2ccn3nc(N)nc3c2)cnc1OC)c1cccc(OC(F)(F)F)c1 [Example 346, (R)-5-(2-amino-[1,2,4]triazolo[1,5-a]pyridin-7-yl)-2-methoxy-N-(1-(3-(trifluoromethoxy)phenyl)ethyl-2,2,2-d3)nicotinamide]	< 20 nM	20 to 200 nM	
Cc1cnc(C(=O)NCCC(C)c2ccccc2)cc1-c1ccn2nc(N)nc2c1 (centres unmarked) [Example 400, 4-(2-amino-[1,2,4]triazolo[1,5-a]pyridin-7-yl)-5-methyl-N-(3-phenylbutyl)picolinamide]	< 20 nM	20 to 200 nM	
COc1ncc(-c2ccn3nc(N)nc3c2)cc1C(=O)NCc1c(Cl)cccc1Oc1ccccc1 [Example 155, 5-{2-amino-[1,2,4]triazolo[1,5-a]pyridin-7-yl}-N-[(2-chloro-6-phenoxyphenyl)methyl]-2-methoxypyridine-3-carboxamide]	< 20 nM		IC50 [1, 3]: < 20 nM
Nc1nc2cc(-c3cnc(N)c(C(=O)NCc4ccccc4OC4CCCC4)c3)ccn2n1 [Example 54, 2-Amino-5-{2-amino-[1,2,4]triazolo[1,5-a]pyridin-7-yl}-N-{[2-(cyclopentyloxy)phenyl]methyl}pyridine-3-carboxamide]	< 20 nM	20 to 200 nM	
COc1ncc(-c2ccn3nc(N)nc3c2)cc1C(=O)NCc1ccccc1OCC1CCCCC1 [Example 123, 5-{2-amino-[1,2,4]triazolo[1,5-a]pyridin-7-yl}-N-{[2-(cyclohexylmethoxy)phenyl]methyl}-2-methoxypyridine-3-carboxamide]	< 20 nM	20 to 200 nM	
Cc1ncc(-c2ccn3nc(N)nc3c2)cc1C(=O)NCc1cc(F)cc(F)c1OC1CCCOC1 (centres unmarked) [Example 314, 5-(2-amino-[1,2,4]triazolo[1,5-a]pyridin-7-yl)-N-(3,5-difluoro-2-((tetrahydro-2H-pyran-3-yl)oxy)benzyl)-2-methylnicotinamide]		20 to 200 nM	IC50 [2, 6]: 20 to 200 nM
CCOc1ncc(-c2ccn3nc(N)nc3c2)cc1C(=O)NCc1ccccc1Oc1ccccc1 [Example 277, 5-{2-amino-[1,2,4]triazolo[1,5-a]pyridin-7-yl}-2-ethoxy-N-[(2-phenoxyphenyl)methyl]pyridine-3-carboxamide]	< 20 nM		IC50 [1, 3]: < 20 nM
COc1nc(C)c(-c2ccn3nc(N)nc3c2)cc1C(=O)NCc1ncccc1OCC1CCCC1 [Example 203, 5-{2-amino-[1,2,4]triazolo[1,5-a]pyridine-7-yl}-N-{[3-(cyclopentylmethoxy)pyridin-2-yl]methyl}-2-methoxy-6-methylpyridine-3-carboxamide]	< 20 nM	20 to 200 nM	
COc1ncc(-c2ccn3nc(N)nc3c2)cc1NC(=O)Cc1ccccc1OC(F)(F)F [Example 417, N-(5-(2-amino-[1,2,4]triazolo[1,5-a]pyridin-7-yl)-2-methoxypyridin-3-yl)-2-(2-(trifluoromethoxy)phenyl)acetamide]			IC50 [1, 5]: > 200 nM; IC50 [2, 6]: 20 to 200 nM
COc1ncc(-c2ccn3nc(N)nc3c2)cc1C(=O)NCc1ccccc1N1CCC(C)CC1 [Example 108, 5-{2-amino-[1,2,4]triazolo[1,5-a]pyridin-7-yl}-2-methoxy-N-{[2-(4-methylpiperidin-1-yl)phenyl]methyl}pyridine-3-carboxamide]	< 20 nM		IC50 [1, 3]: < 20 nM
Cc1ncc(-c2ccn3nc(N)nc3c2)cc1C(=O)NCc1cc(F)cc(F)c1OC1CC(C)OC(C)C1 (centres unmarked) [Example 315, 5-(2-amino-[1,2,4]triazolo[1,5-a]pyridin-7-yl)-N-(2-((2,6-dimethyltetrahydro-2H-pyran-4-yl)oxy)-3,5-difluorobenzyl)-2-methylnicotinamide]		20 to 200 nM	IC50 [2, 6]: 20 to 200 nM
Cc1ncc(C(=O)NCc2cccnc2OCC2CCC2)cc1-c1ccn2nc(N)nc2c1 [Example 261, 5-{2-amino-[1,2,4]triazolo[1,5-a]pyridin-7-yl}-N-{[2-(cyclobutylmethoxy)pyridin-3-yl]methyl}-6-methylpyridine-3-carboxamide]			IC50 [1, 5]: > 200 nM; IC50 [2, 6]: 20 to 200 nM
Cc1ncc(-c2ccn3nc(N)nc3c2)cc1C(=O)NCc1cccnc1OC1CCCC1 [Example 240, 5-{2-amino-[1,2,4]triazolo[1,5-a]pyridin-7-yl}-N-{[2-(cyclopentyloxy)pyridin-3-yl]methyl}-2-methylpyridine-3-carboxamide]	< 20 nM	20 to 200 nM	
CC(CCNC(=O)c1cncc(-c2ccn3nc(N)nc3c2)c1)c1ccccc1 (centres unmarked) [Example 73, 5-{2-Amino-[1,2,4]triazolo[1,5-a]pyridin-7-yl}-N-(3-phenylbutyl)pyridine-3-carboxamide]	< 20 nM		IC50 [1, 5]: > 200 nM
COc1nc(C)c(-c2ccn3nc(N)nc3c2)cc1C(=O)NCc1cc(F)cc(F)c1OCC1CCCC1 [Example 208, 5-{2-amino-[1,2,4]triazolo[1,5-a]pyridin-7-yl}-N-{[2-(cyclopentylmethoxy)-3,5-difluorophenyl]methyl}-2-methoxy-6-methylpyridine-3-carboxamide]	< 20 nM	20 to 200 nM	
Nc1nc2cc(-c3cnc(Cl)c(C(=O)NCc4ccc(F)cc4OCC4CC4)c3)ccn2n1 [Example 1, 5-(2-Amino-[1,2,4]triazolo[1,5-a]pyridin-7-yl)-2-chloro-N-([2-(cyclopropylmethoxy)-4-fluorophenyl]methyl)pyridine-3-carboxamide]			IC50 [1, 5]: > 200 nM; IC50 ([2]; x marks IC50 class >200 nM, read-out: RIPK1 HTRF binding >200 nM): > 200 nM
COc1nc(C)c(-c2ccn3nc(N)nc3c2)cc1C(=O)NCc1ccccc1OCC1CCCCC1 [Example 7, 5-{2-Amino-[1,2,4]triazolo[1,5-a]pyridin-7-yl}-N-{[2-(cyclohexylmethoxy)phenyl]methyl}-2-methoxy-6-methylpyridine-3-carboxamide]	< 20 nM	20 to 200 nM	
